According to the kinase profiling compilation of Christmann-Franck et al. (2016):

Key:
Test in all cases: KINOMEscan competition binding
AURKA (human) = AURKA (human) (UniProt O14965)
AURKC (human) = AURKC (human) (UniProt Q9UQB9)
CAMK1 (human) = CAMK1 (human) (UniProt Q14012)
CAMK2A (human) = CAMK2A (human) (UniProt Q9UQM7)
CAMK2B (human) = CAMK2B (human) (UniProt Q13554)
CAMK2D (human) = CAMK2D (human) (UniProt Q13557)
CAMK2G (human) = CAMK2G (human) (UniProt Q13555)
CAMKK1 (human) = CAMKK1 (human) (UniProt Q8N5S9)
Chain of CAMKK1 (human) (Q8N5S9 whole entry, looked up): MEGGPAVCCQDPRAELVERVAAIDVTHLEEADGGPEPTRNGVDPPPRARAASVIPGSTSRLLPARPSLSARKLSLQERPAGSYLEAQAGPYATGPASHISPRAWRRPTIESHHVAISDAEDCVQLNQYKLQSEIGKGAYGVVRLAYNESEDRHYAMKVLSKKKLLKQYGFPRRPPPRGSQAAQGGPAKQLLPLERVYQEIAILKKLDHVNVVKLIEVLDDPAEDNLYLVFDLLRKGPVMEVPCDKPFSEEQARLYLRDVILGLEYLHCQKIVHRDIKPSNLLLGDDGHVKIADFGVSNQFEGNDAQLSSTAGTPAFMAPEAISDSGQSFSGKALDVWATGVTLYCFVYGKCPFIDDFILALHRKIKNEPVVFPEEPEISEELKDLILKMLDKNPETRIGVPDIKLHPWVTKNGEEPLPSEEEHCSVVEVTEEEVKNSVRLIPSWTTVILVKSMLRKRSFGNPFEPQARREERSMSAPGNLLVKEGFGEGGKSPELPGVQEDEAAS

CDK2 (human) = CDK2 (human) (UniProt P24941)
CDK5 (human) = CDK5 (human) (UniProt Q00535)
CSNK1G1 (human) = CSNK1G1 (human) (UniProt Q9HCP0)
Chain of CSNK1G1 (human) (Q9HCP0 whole entry, looked up): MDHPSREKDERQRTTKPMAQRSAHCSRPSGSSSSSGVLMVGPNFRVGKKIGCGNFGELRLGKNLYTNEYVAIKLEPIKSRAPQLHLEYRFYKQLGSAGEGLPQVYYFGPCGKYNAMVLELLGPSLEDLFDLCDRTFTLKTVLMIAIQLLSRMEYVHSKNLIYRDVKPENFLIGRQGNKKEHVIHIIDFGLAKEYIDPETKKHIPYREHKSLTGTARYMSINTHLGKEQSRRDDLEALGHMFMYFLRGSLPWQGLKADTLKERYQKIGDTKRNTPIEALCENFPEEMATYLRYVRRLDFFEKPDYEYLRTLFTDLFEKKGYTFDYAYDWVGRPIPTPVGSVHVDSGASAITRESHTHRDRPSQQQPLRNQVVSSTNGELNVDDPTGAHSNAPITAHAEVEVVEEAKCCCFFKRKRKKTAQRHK

DAPK2 (human) = DAPK2 (human) (UniProt Q9UIK4)
EPHA2 (human) = EPHA2 (human) (UniProt P29317)
EPHA4 (human) = EPHA4 (human) (UniProt P54764)
EPHA7 (human) = EPHA7 (human) (UniProt Q15375)
FGFR1 (human) = FGFR1 (human) (UniProt P11362)
FGFR2 (human) = FGFR2 (human) (UniProt P21802)
FGFR3 (human) = FGFR3 (human) (UniProt P22607)
Chain of FGFR3 (human) (P22607 whole entry, looked up): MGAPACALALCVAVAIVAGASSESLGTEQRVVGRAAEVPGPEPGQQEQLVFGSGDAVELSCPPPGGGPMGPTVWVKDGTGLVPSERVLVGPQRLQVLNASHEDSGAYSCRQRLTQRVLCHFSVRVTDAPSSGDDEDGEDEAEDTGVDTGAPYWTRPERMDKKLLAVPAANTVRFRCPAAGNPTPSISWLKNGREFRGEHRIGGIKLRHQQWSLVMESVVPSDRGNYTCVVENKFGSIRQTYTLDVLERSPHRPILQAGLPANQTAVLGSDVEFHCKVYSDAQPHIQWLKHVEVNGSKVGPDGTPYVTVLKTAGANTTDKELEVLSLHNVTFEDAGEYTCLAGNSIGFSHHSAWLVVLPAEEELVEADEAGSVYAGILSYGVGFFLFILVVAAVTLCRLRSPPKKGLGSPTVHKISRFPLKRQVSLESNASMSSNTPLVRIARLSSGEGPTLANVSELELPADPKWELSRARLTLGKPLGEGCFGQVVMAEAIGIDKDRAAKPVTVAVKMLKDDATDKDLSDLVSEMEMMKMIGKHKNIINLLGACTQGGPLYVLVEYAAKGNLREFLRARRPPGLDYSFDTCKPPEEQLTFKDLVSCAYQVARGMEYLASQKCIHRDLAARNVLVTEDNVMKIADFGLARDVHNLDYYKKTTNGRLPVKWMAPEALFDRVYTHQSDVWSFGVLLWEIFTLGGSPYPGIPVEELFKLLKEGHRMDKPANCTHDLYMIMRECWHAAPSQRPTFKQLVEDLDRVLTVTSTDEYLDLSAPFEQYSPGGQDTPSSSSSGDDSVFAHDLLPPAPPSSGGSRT

FGR (human) = FGR (human) (UniProt P09769)
FLT3 (human) = FLT3 (human) (UniProt P36888)
FLT4 (human) = FLT4 (human) (UniProt P35916)
INSR (human) = INSR (human) (UniProt P06213)
[1] = biological target: JAK1 JH1 catalytic (human) (UniProt P23458)
KDR (human) = KDR (human) (UniProt P35968)
KIT (human) = KIT (human) (UniProt P10721)
LIMK1 (human) = LIMK1 (human) (UniProt P53667)
Chain of LIMK1 (human) (P53667 whole entry, looked up): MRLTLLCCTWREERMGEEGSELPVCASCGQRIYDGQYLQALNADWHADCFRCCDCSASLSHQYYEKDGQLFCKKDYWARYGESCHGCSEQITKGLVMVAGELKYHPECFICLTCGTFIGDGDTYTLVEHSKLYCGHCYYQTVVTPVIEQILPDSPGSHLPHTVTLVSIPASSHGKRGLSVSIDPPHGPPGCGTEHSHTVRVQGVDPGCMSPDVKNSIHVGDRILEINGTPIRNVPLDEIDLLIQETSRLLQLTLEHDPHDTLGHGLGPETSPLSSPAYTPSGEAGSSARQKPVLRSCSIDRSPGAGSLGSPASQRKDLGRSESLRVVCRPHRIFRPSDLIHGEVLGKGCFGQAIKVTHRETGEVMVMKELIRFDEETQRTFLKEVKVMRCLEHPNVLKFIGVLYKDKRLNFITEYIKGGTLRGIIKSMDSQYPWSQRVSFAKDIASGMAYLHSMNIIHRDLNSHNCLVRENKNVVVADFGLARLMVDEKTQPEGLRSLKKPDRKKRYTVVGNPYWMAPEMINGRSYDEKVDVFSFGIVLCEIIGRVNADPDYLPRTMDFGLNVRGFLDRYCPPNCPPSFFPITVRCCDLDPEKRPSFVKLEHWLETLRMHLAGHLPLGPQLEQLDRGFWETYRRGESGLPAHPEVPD

MAP3K5 (human) = MAP3K5 (human) (UniProt Q99683)
MAPK10 (human) = MAPK10 (human) (UniProt P53779)
MAPK11 (human) = MAPK11 (human) (UniProt Q15759)
MAPK12 (human) = MAPK12 (human) (UniProt P53778)
Chain of MAPK12 (human) (P53778 whole entry, looked up): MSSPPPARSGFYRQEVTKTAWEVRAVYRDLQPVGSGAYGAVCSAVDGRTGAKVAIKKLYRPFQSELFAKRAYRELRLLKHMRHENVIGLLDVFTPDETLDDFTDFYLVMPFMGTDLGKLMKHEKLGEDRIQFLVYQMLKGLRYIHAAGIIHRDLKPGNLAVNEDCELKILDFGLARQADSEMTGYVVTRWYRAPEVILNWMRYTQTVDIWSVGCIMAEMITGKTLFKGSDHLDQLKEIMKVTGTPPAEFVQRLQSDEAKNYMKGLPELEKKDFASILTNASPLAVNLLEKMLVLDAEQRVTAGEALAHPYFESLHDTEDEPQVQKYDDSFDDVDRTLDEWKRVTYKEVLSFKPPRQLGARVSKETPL

MAPK14 (human) = MAPK14 (human) (UniProt Q16539)
MAPK8 (human) = MAPK8 (human) (UniProt P45983)
MAPK9 (human) = MAPK9 (human) (UniProt P45984)
MKNK2 (human) = MKNK2 (human) (UniProt Q9HBH9)
NEK6 (human) = NEK6 (human) (UniProt Q9HC98)
NEK9 (human) = NEK9 (human) (UniProt Q8TD19)
NTRK1 (human) = NTRK1 (human) (UniProt P04629)
PAK4 (human) = PAK4 (human) (UniProt O96013)
PAK6 (human) = PAK6 (human) (UniProt Q9NQU5)
PAK7 (human) = PAK7 (human) (UniProt Q9P286)
PDGFRB (human) = PDGFRB (human) (UniProt P09619)
PIM1 (human) = PIM1 (human) (UniProt P11309)
Chain of PIM1 (human) (P11309 whole entry, looked up): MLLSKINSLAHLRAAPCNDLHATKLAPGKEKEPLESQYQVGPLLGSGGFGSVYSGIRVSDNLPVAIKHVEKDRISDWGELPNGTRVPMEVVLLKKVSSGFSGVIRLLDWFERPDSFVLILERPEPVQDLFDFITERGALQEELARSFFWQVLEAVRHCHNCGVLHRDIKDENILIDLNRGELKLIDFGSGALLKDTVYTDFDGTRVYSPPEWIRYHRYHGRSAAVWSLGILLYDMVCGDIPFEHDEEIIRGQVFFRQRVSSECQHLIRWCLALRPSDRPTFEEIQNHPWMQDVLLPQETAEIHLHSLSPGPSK

PIM2 (human) = PIM2 (human) (UniProt Q9P1W9)
PLK4 (human) = PLK4 (human) (UniProt O00444)
PRKAA1 (human) = PRKAA1 (human) (UniProt Q13131)
Chain of PRKAA1 (human) (Q13131 whole entry, looked up): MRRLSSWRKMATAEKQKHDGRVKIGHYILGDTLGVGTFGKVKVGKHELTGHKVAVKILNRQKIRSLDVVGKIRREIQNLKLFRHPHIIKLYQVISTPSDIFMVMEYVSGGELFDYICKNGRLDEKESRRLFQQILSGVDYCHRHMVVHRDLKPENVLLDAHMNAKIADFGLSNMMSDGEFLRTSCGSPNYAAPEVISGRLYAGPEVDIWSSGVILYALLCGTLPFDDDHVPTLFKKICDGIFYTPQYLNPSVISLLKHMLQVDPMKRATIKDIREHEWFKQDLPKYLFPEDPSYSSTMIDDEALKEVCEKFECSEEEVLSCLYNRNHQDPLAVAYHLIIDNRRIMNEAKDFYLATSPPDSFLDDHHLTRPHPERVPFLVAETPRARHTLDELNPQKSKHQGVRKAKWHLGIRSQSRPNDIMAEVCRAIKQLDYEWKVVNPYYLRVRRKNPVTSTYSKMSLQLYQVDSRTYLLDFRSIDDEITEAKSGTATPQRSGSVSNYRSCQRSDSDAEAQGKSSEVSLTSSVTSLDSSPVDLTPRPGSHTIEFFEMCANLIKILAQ

PRKACA (human) = PRKACA (human) (UniProt P17612)
PTK6 (human) = PTK6 (human) (UniProt Q13882)
RIPK2 (human) = RIPK2 (human) (UniProt O43353)
Chain of RIPK2 (human) (O43353 whole entry, looked up): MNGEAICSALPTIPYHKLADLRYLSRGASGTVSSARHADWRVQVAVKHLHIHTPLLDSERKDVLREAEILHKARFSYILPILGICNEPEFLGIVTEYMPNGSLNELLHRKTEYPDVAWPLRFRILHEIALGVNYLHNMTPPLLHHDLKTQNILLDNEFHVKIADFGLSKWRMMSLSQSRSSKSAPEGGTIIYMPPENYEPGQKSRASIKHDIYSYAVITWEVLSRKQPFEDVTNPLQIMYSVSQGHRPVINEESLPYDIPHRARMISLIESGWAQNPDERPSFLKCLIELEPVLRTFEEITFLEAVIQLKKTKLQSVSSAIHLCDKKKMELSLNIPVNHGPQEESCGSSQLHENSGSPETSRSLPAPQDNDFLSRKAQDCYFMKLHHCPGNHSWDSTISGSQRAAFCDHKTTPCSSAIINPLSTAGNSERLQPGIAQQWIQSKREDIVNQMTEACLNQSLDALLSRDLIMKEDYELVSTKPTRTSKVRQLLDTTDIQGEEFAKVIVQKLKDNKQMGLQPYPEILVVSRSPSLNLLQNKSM

RPS6KA3 KD1 (human) = RPS6KA3 KD1 (human) (UniProt P51812)
RPS6KA5 KD1 (human) = RPS6KA5 KD1 (human) (UniProt O75582)
STK16 (human) = STK16 (human) (UniProt O75716)
TTK (human) = TTK (human) (UniProt P33981)
Chain of TTK (human) (P33981 whole entry, looked up): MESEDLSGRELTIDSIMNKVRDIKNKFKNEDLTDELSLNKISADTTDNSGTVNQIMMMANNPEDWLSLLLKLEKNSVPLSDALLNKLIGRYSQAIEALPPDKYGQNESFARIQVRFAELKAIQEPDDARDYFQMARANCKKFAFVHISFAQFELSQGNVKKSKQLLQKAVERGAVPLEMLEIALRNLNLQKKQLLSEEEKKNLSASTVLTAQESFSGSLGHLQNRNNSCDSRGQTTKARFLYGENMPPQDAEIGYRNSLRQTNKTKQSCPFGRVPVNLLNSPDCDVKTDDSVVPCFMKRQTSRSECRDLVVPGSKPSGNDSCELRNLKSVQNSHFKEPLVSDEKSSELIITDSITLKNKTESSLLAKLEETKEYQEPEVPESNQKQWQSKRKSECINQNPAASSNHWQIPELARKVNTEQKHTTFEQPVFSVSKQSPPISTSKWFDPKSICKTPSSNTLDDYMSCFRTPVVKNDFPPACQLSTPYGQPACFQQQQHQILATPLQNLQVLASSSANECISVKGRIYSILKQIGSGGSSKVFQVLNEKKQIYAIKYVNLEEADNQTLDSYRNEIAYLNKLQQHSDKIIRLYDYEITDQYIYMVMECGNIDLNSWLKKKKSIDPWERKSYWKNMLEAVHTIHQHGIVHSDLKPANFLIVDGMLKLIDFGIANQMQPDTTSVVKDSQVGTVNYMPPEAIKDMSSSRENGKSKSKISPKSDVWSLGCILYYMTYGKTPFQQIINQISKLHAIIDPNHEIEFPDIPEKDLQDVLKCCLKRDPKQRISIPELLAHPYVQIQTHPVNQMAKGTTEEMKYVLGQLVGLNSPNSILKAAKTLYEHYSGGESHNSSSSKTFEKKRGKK

Measured: Kd

CCOc1cc2ncc(C#N)c(Nc3ccc(F)c(Cl)c3)c2cc1NC(=O)/C=C/CN(C)C
> 10 µM: all assays above

CS(=O)c1ccc(-c2nc(-c3ccc(F)cc3)c(-c3ccncc3)[nH]2)cc1 (stereo not drawn)
> 10 µM: TTK (human)
